PubChem BioAssay AID330 (DTP/NCI, 2004)
Where “and” joins values, the source holds several entries; their conditions need not be identical. Identical values can stand only once. Toxic doses and inconclusive results are not listed. How the source made its calls: active means survival T/C of 150% or more; inactive means T/C below 125% in these data.

System: P388 leukemia ip, CD2F1 mice, survival T/C
Experiment: NCI In Vivo Anticancer Drug Screen. Data for tumor model P388 Leukemia (intraperitoneal) in CD2F1 (CDF1) mice
Conditions: endpoint: median survival time, higher = longer survival
In short: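 Mice carrying the transplanted tumor received test compound or vehicle. Survival was recorded in each group, and the value is the treated-group measurement divided by that of the vehicle-treated control group.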

[1] = dose: 50.0 mg/kg/injection, schedule: Q01DX005 (ip), vehicle: Klucel (hydroxypropylcellulose) (HPC)
[2] = dose: 100.0 mg/kg/injection, schedule: Q01DX005 (ip), vehicle: Klucel (hydroxypropylcellulose) (HPC)
[3] = dose: 200.0 mg/kg/injection, schedule: Q01DX005 (ip), vehicle: Klucel (hydroxypropylcellulose) (HPC)
[4] = dose: 12.5 mg/kg/injection, schedule: Q01DX005 (ip), vehicle: saline with Tween-80
[5] = dose: 200.0 mg/kg/injection, schedule: Q01DX005 (ip), vehicle: saline with Tween-80
[6] = dose: 60.0 mg/kg/injection, schedule: Q01DX005 (ip), vehicle: Klucel (hydroxypropylcellulose) (HPC)
[7] = dose: 120.0 mg/kg/injection, schedule: Q01DX005 (ip), vehicle: Klucel (hydroxypropylcellulose) (HPC)
[8] = dose: 240.0 mg/kg/injection, schedule: Q01DX005 (ip), vehicle: Klucel (hydroxypropylcellulose) (HPC)
[9] = dose: 50.0 mg/kg/injection, schedule: Q01DX005 (ip), vehicle: saline with Tween-80
[10] = dose: 60.0 mg/kg/injection, schedule: Q01DX005 (ip), vehicle: saline with Tween-80
[11] = dose: 120.0 mg/kg/injection, schedule: Q01DX005 (ip), vehicle: saline with Tween-80
[12] = dose: 240.0 mg/kg/injection, schedule: Q01DX005 (ip), vehicle: saline with Tween-80
[13] = dose: 100.0 mg/kg/injection, schedule: Q01DX005 (ip), vehicle: saline with Tween-80
[14] = dose: 50.0 mg/kg/injection, schedule: Q01DX009 (ip), vehicle: Klucel (hydroxypropylcellulose) (HPC)
[15] = dose: 100.0 mg/kg/injection, schedule: Q01DX009 (ip), vehicle: Klucel (hydroxypropylcellulose) (HPC)
[16] = dose: 200.0 mg/kg/injection, schedule: Q01DX009 (ip), vehicle: Klucel (hydroxypropylcellulose) (HPC)

Measured: T/C

COC(=O)NC(=S)Nc1nncs1
inactive: dose: 25.0 mg/kg/injection, schedule: Q04DX003 (ip), vehicle: saline with Tween-80 101 % of control | dose: 50.0 mg/kg/injection, schedule: Q04DX003 (ip), vehicle: saline with Tween-80 105 % of control | dose: 100.0 mg/kg/injection, schedule: Q04DX003 (ip), vehicle: saline with Tween-80 105 % of control

CCOP1(=O)OC(c2ccccc2)C(C)N1C (stereo unspecified)
inactive: [1] 100 % of control | [2] 104 % of control | [3] 107 % of control

O=C1c2cccc3cccc(c23)C(=O)N1c1ncn[nH]1
inactive: dose: 6.25 mg/kg/injection, schedule: Q01DX005 (ip), vehicle: saline with Tween-80 87 % of control | [4] 86 % of control | [5] 88 % of control

NC(=O)C(C(N)=O)=C1C(=O)c2ccccc2C1=O
inactive: [6] 95 % of control | [7] 100 % of control | [8] 99 % of control

CCCCN(CCCC)CCNc1ccc(C)c2sc3ccc(Cl)cc3c(=O)c12
inactive: [4] 88 % of control | dose: 25.0 mg/kg/injection, schedule: Q01DX005 (ip), vehicle: saline with Tween-80 88 % of control | [9] 89 % of control

CCN(CC)c1nc(N(CC)CC)nc(N(CC)CC)n1
inactive: dose: 25.0 mg/kg/injection, schedule: Q01DX009 (ip), vehicle: saline with Tween-80 102 % of control | dose: 50.0 mg/kg/injection, schedule: Q01DX009 (ip), vehicle: saline with Tween-80 104 % of control | dose: 100.0 mg/kg/injection, schedule: Q01DX009 (ip), vehicle: saline with Tween-80 104 % of control | dose: 200.0 mg/kg/injection, schedule: Q01DX009 (ip), vehicle: saline with Tween-80 104 % of control

CSc1nc(Cl)c2ncn(C3C=CC(OC(C)=O)CO3)c2n1 (stereo unspecified)
inactive: [1] 103 % of control | [2] 99 % of control | [3] 109 % of control

CCOC(=O)C1=C(c2ccccc2)C2OC1C(COC(=O)NC)=C2COC(=O)NC (stereo unspecified)
inactive: dose: 12.5 mg/kg/injection, schedule: Q01DX009 (ip), vehicle: distilled water + Tween-80 96 % of control | dose: 25.0 mg/kg/injection, schedule: Q01DX009 (ip), vehicle: distilled water + Tween-80 93 % of control | dose: 50.0 mg/kg/injection, schedule: Q01DX009 (ip), vehicle: distilled water + Tween-80 87 % of control | dose: 100.0 mg/kg/injection, schedule: Q01DX009 (ip), vehicle: distilled water + Tween-80 87 % of control | dose: 200.0 mg/kg/injection, schedule: Q01DX009 (ip), vehicle: distilled water + Tween-80 99 % of control

C=Cn1ccnc1C.C=Cn1ccnc1C.CC(=O)CC(C)=O.CC(=O)CC(C)=O.[Co]
inactive: dose: 12.5 mg/kg/injection, schedule: Q04DX003 (ip), vehicle: saline 117 % of control and 95 % of control | dose: 25.0 mg/kg/injection, schedule: Q04DX003 (ip), vehicle: saline 102 % of control and 117 % of control | dose: 50.0 mg/kg/injection, schedule: Q04DX003 (ip), vehicle: saline 105 % of control and 123 % of control

[B-]1n2ccc[n+]2[B-]n2ccc[n+]21
inactive: dose: 15.0 mg/kg/injection, schedule: Q01DX005 (ip), vehicle: saline with Tween-80 100 % of control | dose: 30.0 mg/kg/injection, schedule: Q01DX005 (ip), vehicle: saline with Tween-80 100 % of control | [10] 98 % of control

Oc1c(-c2ccccc2)cc(-[n+]2c(-c3ccccc3)cc(-c3ccccc3)cc2-c2ccccc2)cc1-c1ccccc1
inactive: dose: 0.38 mg/kg/injection, schedule: Q01DX009 (ip), vehicle: saline with Tween-80 88 % of control | dose: 0.75 mg/kg/injection, schedule: Q01DX009 (ip), vehicle: saline with Tween-80 106 % of control | dose: 1.5 mg/kg/injection, schedule: Q01DX009 (ip), vehicle: saline with Tween-80 121 % of control | dose: 3.0 mg/kg/injection, schedule: Q01DX009 (ip), vehicle: saline with Tween-80 122 % of control

CN(C)CCN(C)CCN1C(=O)c2ccccc2C1=O
inactive: dose: 100.0 mg/kg/injection, schedule: Q04DX002 (ip), vehicle: saline 102 % of control | dose: 200.0 mg/kg/injection, schedule: Q04DX002 (ip), vehicle: saline 100 % of control | dose: 400.0 mg/kg/injection, schedule: Q04DX002 (ip), vehicle: saline 100 % of control

Cc1cc2c(c(=O)o1)C(C)CC(c1c(O)cc(C)oc1=O)O2 (stereo unspecified)
inactive: [10] 114 % of control | [11] 108 % of control | [12] 103 % of control

O=NNc1ncnc2c1ncn2Cc1ccccc1
inactive: dose: 3.12 mg/kg/injection, schedule: Q01DX009 (ip), vehicle: water 103 % of control | dose: 6.25 mg/kg/injection, schedule: Q01DX009 (ip), vehicle: water 100 % of control | dose: 12.5 mg/kg/injection, schedule: Q01DX009 (ip), vehicle: water 112 % of control | dose: 25.0 mg/kg/injection, schedule: Q01DX009 (ip), vehicle: water 112 % of control | dose: 50.0 mg/kg/injection, schedule: Q01DX009 (ip), vehicle: water 112 % of control

O=C1NN=C(C(O)c2ccccc2)C1(O)c1ccccc1 (stereo unspecified)
inactive: [10] 91 % of control | dose: 100.0 mg/kg/injection, schedule: Q04DX002 (ip), vehicle: distilled water + alcohol 103 % of control | [11] 98 % of control | dose: 200.0 mg/kg/injection, schedule: Q04DX002 (ip), vehicle: distilled water + alcohol 98 % of control | [12] 93 % of control | dose: 400.0 mg/kg/injection, schedule: Q04DX002 (ip), vehicle: distilled water + alcohol 94 % of control

CC(C)CC(NC(=O)OCc1ccccc1)C(=O)O (stereo unspecified)
inactive: [9] 105 % of control | [13] 101 % of control

N=c1c2ncn(C3OC(CO)C(O)C3O)c2ncn1N (stereo unspecified)
inactive: dose: 25.0 mg/kg/injection, schedule: Q01DX005 (ip), vehicle: water 110 % of control | dose: 50.0 mg/kg/injection, schedule: Q01DX005 (ip), vehicle: water 107 % of control | dose: 100.0 mg/kg/injection, schedule: Q01DX005 (ip), vehicle: water 105 % of control | dose: 200.0 mg/kg/injection, schedule: Q01DX005 (ip), vehicle: water 98 % of control | dose: 400.0 mg/kg/injection, schedule: Q01DX005 (ip), vehicle: water 108 % of control

CC(CC(N)C(=O)O)C(=O)O (stereo unspecified)
inactive: dose: 50.0 mg/kg/injection, schedule: Q01DX005 (ip), vehicle: saline 103 % of control | [14] 103 % of control | dose: 100.0 mg/kg/injection, schedule: Q01DX005 (ip), vehicle: saline 98 % of control | [15] 102 % of control | dose: 200.0 mg/kg/injection, schedule: Q01DX005 (ip), vehicle: saline 100 % of control | [16] 103 % of control | dose: 400.0 mg/kg/injection, schedule: Q01DX009 (ip), vehicle: Klucel (hydroxypropylcellulose) (HPC) 103 % of control

CN1CCN(S(=O)(=O)c2cnccc2N2CCN(CCO)CC2)CC1
inactive: dose: 50.0 mg/kg/injection, schedule: Q01DX009 (ip), vehicle: saline 108 % of control | dose: 100.0 mg/kg/injection, schedule: Q01DX009 (ip), vehicle: saline 97 % of control | dose: 200.0 mg/kg/injection, schedule: Q01DX009 (ip), vehicle: saline 97 % of control

O=C1Oc2ccccc2C(=O)C1=S1CCCC1
inactive: [1] 98 % of control | [2] 91 % of control | [3] 94 % of control

CCn1c(=O)c2[nH]c(Cl)nc2n(CCOC)c1=O
inactive: [14] 116 % of control | [15] 96 % of control | [16] 111 % of control

COC(=O)N1C(c2ccccc2)C=CC(c2ccccc2)N1C(=O)OC (stereo unspecified)
inactive: [6] 103 % of control | [7] 96 % of control | [8] 96 % of control

Nc1ncnc2c1ccn2CC(O)COP(=O)(O)O (stereo unspecified)
inactive: dose: 50.0 mg/kg/injection, schedule: Q01DX005 (ip), vehicle: distilled water + alcohol 104 % of control | dose: 100.0 mg/kg/injection, schedule: Q01DX005 (ip), vehicle: distilled water + alcohol 100 % of control | dose: 200.0 mg/kg/injection, schedule: Q01DX005 (ip), vehicle: distilled water + alcohol 100 % of control

CCOC(=O)C1CSC(c2c(COP(=O)(O)O)cnc(C)c2O)N1 (stereo unspecified)
inactive: [9] 96 % of control | [13] 100 % of control | [5] 94 % of control
